This passage reports IC50 results from patent publication US20240254089A1, “MODULATORS OF MAS-RELATED G-PROTEIN RECEPTOR X4 AND RELATED PRODUCTS AND METHODS” (ESCIENT PHARMACEUTICALS, INC., priority 2020, published 2024).

pIC50: −log10 of the molar value.

T1 sequence (Q96LA9 whole entry): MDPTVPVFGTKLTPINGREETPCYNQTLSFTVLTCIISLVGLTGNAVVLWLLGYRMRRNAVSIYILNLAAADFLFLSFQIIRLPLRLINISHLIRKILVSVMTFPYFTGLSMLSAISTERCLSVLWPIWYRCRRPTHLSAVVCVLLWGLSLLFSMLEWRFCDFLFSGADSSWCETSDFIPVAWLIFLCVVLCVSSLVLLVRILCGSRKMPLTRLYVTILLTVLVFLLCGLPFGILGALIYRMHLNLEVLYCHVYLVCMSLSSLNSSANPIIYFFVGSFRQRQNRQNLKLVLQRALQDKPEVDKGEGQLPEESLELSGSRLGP

The first assay addresses T1, human MRGPR X4 (Homo sapiens, UniProt Q96LA9).
T1 construct: expressed in transfected cells
In words: MRGPR X4 antagonist activity, IP-One Gq HTRF assay in stably transfected HEK cells.
Settings: not given
The format is cell-based. Summed up:
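Human MRGPR X4-expressing HEK cells, 20,000/well, were incubated with compound (10-point curve, 10 uM top, 1:3 dilutions) plus agonist (10 μM bilirubin, 20 μM deoxycholic acid or 100 μM conjugated bilirubin) in Tris/NaCl/LiCl buffer, pH 8, for 1 h at 37 °C, then 30 min at room temperature. IP-1 was read by HTRF, and IC50 was taken from the HTRF ratio.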
For orientation: In TR-FRET formats the signal depends on donor and acceptor labels being close together.
`O=C(NCc1cnc2ccccc2c1)c1nn(Cc2ccc(Cl)cc2)c2ccccc12` [Compound 370] had a pIC50 of less than 5.60.

Regarding `O=C(NCc1ccnc2ccccc12)c1nn(Cc2ccc(Cl)cc2)c2ccccc12` [Compound 371], the pIC50 was less than 5.60.

`O=C(NCc1ccc2ncccc2c1)c1nn(Cc2ccc(Cl)cc2)c2ccccc12` [Compound 372] showed a pIC50 of less than 5.60.

With `O=C(NCCN1CCCc2ccccc21)c1nn(Cc2ccc(Cl)cc2)c2ccccc12` [Compound 373], the pIC50 was 6.00 to 6.30.

With `CC(=O)Nc1ccc(CNC(=O)c2nn(Cc3ccc(Cl)cc3)c3ccccc23)cc1` [Compound 374], the pIC50 is less than 5.60.

Molecule `O=C(NCc1cncnc1)c1nn(Cc2ccc(Cl)cc2)c2ccccc12` [Compound 375] showed a pIC50 of less than 5.60.

As to `O=C(NCc1ccc(O)cc1)c1nn(Cc2ccc(Cl)cc2)c2ccccc12` [Compound 376], the pIC50 was 6.00 to 6.30.

Consider `CC(=O)Nc1cccc(CNC(=O)c2nn(Cc3ccc(Cl)cc3)c3ccccc23)c1` [Compound 377], for which the pIC50 is less than 5.60.

With `CS(=O)(=O)c1ccc(CNC(=O)c2nn(Cc3ccc(Cl)cc3)c3ccccc23)cc1` [Compound 378], the pIC50 is less than 5.60.

Regarding `CS(=O)(=O)c1ccccc1CNC(=O)c1nn(Cc2ccc(Cl)cc2)c2ccccc12` [Compound 379], the pIC50 was less than 5.60.

For `O=C(CNC(=O)c1nn(Cc2ccc(Cl)cc2)c2ccccc12)c1ccc(F)cc1F` [Compound 380], the pIC50 is less than 5.60.

Turning to `O=C(NCCOc1ccccc1)c1nn(Cc2ccc(Cl)cc2)c2ccccc12` [Compound 381], the pIC50 was 5.60 to 6.00.

For `O=C(CNC(=O)c1nn(Cc2ccc(Cl)cc2)c2ccccc12)c1ccc(O)cc1` [Compound 382], the pIC50 was 6.00 to 6.30.

In turn, `Cc1noc(C)c1CCCNC(=O)c1nn(Cc2ccc(Cl)cc2)c2ccccc12` [Compound 383] gave a pIC50 of 5.60 to 6.00.

`O=C(NCCC1CCS(=O)(=O)CC1)c1nn(Cc2ccc(Cl)cc2)c2ccccc12` [Compound 385] had a pIC50 of less than 5.60.

For the molecule `O=C(NCc1ccnc2[nH]ccc12)c1nn(Cc2ccc(Cl)cc2)c2ccccc12` [Compound 386], the pIC50 is less than 5.60.

On to `O=C(NCc1cccc2[nH]ncc12)c1nn(Cc2ccc(Cl)cc2)c2ccccc12` [Compound 387], for which the pIC50 is less than 5.60.

`O=C(NCc1cnn2ccccc12)c1nn(Cc2ccc(Cl)cc2)c2ccccc12` [Compound 388] had a pIC50 of less than 5.60.

`Cn1nc(CNC(=O)c2nn(Cc3ccc(Cl)cc3)c3ccccc23)c2cccnc21` [Compound 389]: the pIC50 was less than 5.60.

Take `Cn1cc2ccc(CNC(=O)c3nn(Cc4ccc(Cl)cc4)c4ccccc34)cc2n1` [Compound 391]: the pIC50 is 5.60 to 6.00.

For `Cn1ccc(CNC(=O)c2nn(Cc3ccc(Cl)cc3)c3ccccc23)cc1=O` [Compound 392], the pIC50 was 5.60 to 6.00.

For the molecule `O=C(NCc1nc2ccccc2o1)c1nn(Cc2ccc(Cl)cc2)c2ccccc12` [Compound 393], the pIC50 is less than 5.60.

Molecule `O=C(NCc1cccnc1N1CCOCC1)c1nn(Cc2ccc(Cl)cc2)c2ccccc12` [Compound 395] gave a pIC50 of less than 5.60.

`O=C(NCCc1c[nH]c2ccc(Cl)cc12)c1nn(Cc2ccc(Cl)cc2)c2ccccc12` [Compound 396] showed a pIC50 of less than 5.60.

On to `Cn1c(CCNC(=O)c2nn(Cc3ccc(Cl)cc3)c3ccccc23)nc2ccccc21` [Compound 397], for which the pIC50 is 6.30 to 7.00.

Molecule `O=C(NCCn1cncn1)c1nn(Cc2ccc(Cl)cc2)c2ccccc12` [Compound 398] showed a pIC50 of less than 5.60.

For the molecule `CNC(=O)c1cccc(CNC(=O)c2nn(Cc3ccc(Cl)cc3)c3ccccc23)c1` [Compound 399], the pIC50 was less than 5.60.

For `O=C(NCCNC(=O)c1nn(Cc2ccc(Cl)cc2)c2ccccc12)c1ccccc1` [Compound 400], the pIC50 was 6.30 to 7.00.

The molecule `O=C(NCCc1nnc2ccccn12)c1nn(CCC2CCCCC2)c2ccccc12` [Compound 402, N-(2-([1,2,4]triazolo[4,3-a]pyridin-3-yl)ethyl)-1-(2-0cyclohexylethyl)-1H-indazole-3-carboxamide] gave a pIC50 of 6.30 to 7.00.

Turning to `O=C(NCCC(=O)N1CCCC1)c1nn(Cc2ccc(Cl)cc2)c2ccccc12` [Compound 403], the pIC50 was 6.30 to 7.00.

`N#Cc1ccc(CNC(=O)c2nn(Cc3ccc(Cl)cc3)c3ccccc23)nc1` [Compound 404] showed a pIC50 of 5.60 to 6.00.

In turn, `O=C(NCc1ccnnc1)c1nn(Cc2ccc(Cl)cc2)c2ccccc12` [Compound 405] gave a pIC50 of less than 5.60.

Molecule `N#Cc1ccc(Cn2nc(C(=O)NCCc3nnc4ccccn34)c3ccccc32)cc1` [Compound 408] gave a pIC50 of 6.30 to 7.00.

Molecule `N#Cc1ccccc1Cn1nc(C(=O)NCCc2nnc3ccccn23)c2ccccc21` [Compound 409] showed a pIC50 of 5.60 to 6.00.

For `O=C(NCCc1nnc2ccccn12)c1nn(Cc2cc3c(cc2Cl)OCO3)c2ccccc12` [Compound 411], the pIC50 was greater than 7.00.

`O=C(NCCc1nnc2ccccn12)c1nn(Cc2ccc3ccccc3n2)c2ccccc12` [Compound 412] gave a pIC50 of 6.30 to 7.00.

`CC(=O)c1ccc(Cn2nc(C(=O)NCCc3nnc4ccccn34)c3ccccc32)cc1` [Compound 413]: the pIC50 was 6.30 to 7.00.

Molecule `O=C(NCCc1nnc2ccccn12)c1nn(Cc2nnc(-c3ccccc3)o2)c2ccccc12` [Compound 414] gave a pIC50 of 6.30 to 7.00.

As to `CC(C)(C)c1cnc(Cn2nc(C(=O)NCCc3nnc4ccccn34)c3ccccc32)o1` [Compound 415], the pIC50 was 6.00 to 6.30.

Consider `Cc1[nH]c2ccc(O)cc2c1CCNC(=O)c1nn(Cc2ccc(Cl)cc2)c2ccccc12` [Compound 416], for which the pIC50 was greater than 7.00.

Consider `O=C(CNC(=O)c1nn(Cc2ccc(Cl)cc2)c2ccccc12)NCC(F)F` [Compound 418], for which the pIC50 was less than 5.60.

`O=C(NCCN1CCCCC1=O)c1nn(Cc2ccc(Cl)cc2)c2ccccc12` [Compound 419] showed a pIC50 of 6.30 to 7.00.

As for `Cc1noc(CCNC(=O)c2nn(Cc3ccc(Cl)cc3)c3ccccc23)n1` [Compound 420], the pIC50 was 5.60 to 6.00.

In turn, `Cc1cccn2cc(CNC(=O)c3nn(Cc4ccc(Cl)cc4)c4ccccc34)nc12` [Compound 421] had a pIC50 of 6.00 to 6.30.

For `CC(C)c1cc(CNC(=O)c2nn(Cc3ccc(Cl)cc3)c3ccccc23)on1` [Compound 422], the pIC50 was less than 5.60.

In the case of `O=C(NCc1ccc2ccccc2n1)c1nn(Cc2ccc(Cl)cc2)c2ccccc12` [Compound 423], the pIC50 was less than 5.60.

As to `N#Cc1ccc2nc(CNC(=O)c3nn(Cc4ccc(Cl)cc4)c4ccccc34)cn2c1` [Compound 424], the pIC50 is 6.00 to 6.30.

The molecule `O=C(NCCCn1cnc2ccccc21)c1nn(Cc2ccc(Cl)cc2)c2ccccc12` [Compound 425] had a pIC50 of 5.60 to 6.00.

`O=C(NCc1ccc(-n2ccnc2)cc1)c1nn(Cc2ccc(Cl)cc2)c2ccccc12` [Compound 426] showed a pIC50 of 5.60 to 6.00.

On to `O=C(NCc1ccc2nonc2c1)c1nn(Cc2ccc(Cl)cc2)c2ccccc12` [Compound 427], for which the pIC50 was less than 5.60.

On to `Cn1cc2cccc(CNC(=O)c3nn(Cc4ccc(Cl)cc4)c4ccccc34)c2n1` [Compound 428], for which the pIC50 was less than 5.60.

In turn, `O=C(NCc1ncc(-c2ccccc2)[nH]1)c1nn(Cc2ccc(Cl)cc2)c2ccccc12` [Compound 429] had a pIC50 of 6.00 to 6.30.

`COc1ccccc1Cn1nc(C(=O)NCCc2nnc3ccccn23)c2ccccc21` [Compound 430] gave a pIC50 of less than 5.60.

Molecule `Cc1nc(Cn2nc(C(=O)NCCc3nnc4ccccn34)c3ccccc32)nc2ccccc12` [Compound 431] had a pIC50 of 5.60 to 6.00.

For the molecule `O=C(NCCc1nnc2ccccn12)c1nn(Cc2ccc3ccccc3c2)c2ccccc12` [Compound 432], the pIC50 was greater than 7.00.

`O=C(NCCc1nnc2ccccn12)c1nn(Cc2cccc3c2OCO3)c2ccccc12` [Compound 433] gave a pIC50 of 6.00 to 6.30.

With `COc1cccc(Cn2nc(C(=O)NCCc3nnc4ccccn34)c3ccccc32)n1` [Compound 434], the pIC50 is 5.60 to 6.00.

`O=C(NCCc1nnc2ccccn12)c1nn(Cc2ncc3cc(Cl)ccc3n2)c2ccccc12` [Compound 436] showed a pIC50 of 6.30 to 7.00.

`CC(C)c1noc(Cn2nc(C(=O)NCCc3nnc4ccccn34)c3ccccc32)n1` [Compound 437] gave a pIC50 of 6.30 to 7.00.

Consider `O=C(NCCc1nnc2ccccn12)c1nn(Cc2nc3ccccc3o2)c2ccccc12` [Compound 438], for which the pIC50 is 6.30 to 7.00.

Take `Cc1nc(Cn2nc(C(=O)NCCc3nnc4ccccn34)c3ccccc32)cs1` [Compound 439]: the pIC50 is 6.30 to 7.00.

In turn, `O=C(NCCc1nnc2ccccn12)c1nn(Cc2ncco2)c2ccccc12` [Compound 440] had a pIC50 of less than 5.60.

With `O=C(NCCc1nnc2ccccn12)c1nn(CCc2ccc(C(F)(F)F)cc2)c2ccccc12` [Compound 441], the pIC50 was 5.60 to 6.00.

The assay is the same for the next values; noted with them: versus 20 μM deoxycholic acid agonist; HEK cells expressing human MRGPR X4; read-out: MRGPRX4 Antagonist Activity.
Turning to `CS(=O)(=O)NCCNC(=O)c1nn(Cc2ccc(Cl)cc2)c2ccccc12` [Compound 384], the pIC50 was less than 5.60.

Take `O=C(NCC1CCS(=O)(=O)CC1)c1nn(Cc2ccc(Cl)cc2)c2ccccc12` [Compound 390]: the pIC50 was less than 5.60.

As for `O=C(NCCC(=O)N1CCOCC1)c1nn(Cc2ccc(Cl)cc2)c2ccccc12` [Compound 401], the pIC50 is 6.00 to 6.30.

`O=C(NCCOc1ccncc1)c1nn(Cc2ccc(Cl)cc2)c2ccccc12` [Compound 406]: the pIC50 was 5.60 to 6.00.

In the case of `O=C(NCCS(=O)(=O)c1ccccc1)c1nn(Cc2ccc(Cl)cc2)c2ccccc12` [Compound 407], the pIC50 was 5.60 to 6.00.

For `O=C(NCCc1nnc2ccccn12)c1nn(Cc2ccc(-c3ccccc3)cc2)c2ccccc12` [Compound 410], the pIC50 is less than 5.60.

In the case of `CS(=O)(=O)c1ccccc1Cn1nc(C(=O)NCCc2nnc3ccccn23)c2ccccc21` [Compound 435], the pIC50 was less than 5.60.

`O=C(NCCc1nnc2ccccn12)c1nn(CCc2ccc(Cl)cc2)c2ccccc12` [Compound 442]: the pIC50 was less than 5.60.
